Numbers after ± are expanded uncertainties.
Key:
[1] = for molar entropy: 101.33 kPa, Vacuum adiabatic calorimetry; for Triple point temperature: Adiabatic calorimetry
[2] = molar heat capacity at constant pressure; conditions: 101.33 kPa, Vacuum adiabatic calorimetry

CCCCn1cc[n+](C)c1.O=S(=O)([O-])C(F)(F)F [1-butyl-3-methylimidazolium trifluoromethanesulfonate]
Conditions | molar entropy, [1] [J/K/mol] | molar heat capacity at constant pressure, [2] [J/K/mol]
5 K, Crystal 2 | 0.4944 ± 0.023 | 1.486 ± 0.031
10 K, Crystal 2 | 3.77 ± 0.06 | 10.2 ± 0.1
15 K, Crystal 2 | 10.39 ± 0.12 | 23.78 ± 0.18
20 K, Crystal 2 | 19.26 ± 0.18 | 38.56 ± 0.23
25 K, Crystal 2 | 29.42 ± 0.22 | 52.98 ± 0.25
30 K, Crystal 2 | 40.29 ± 0.19 | 66.38 ± 0.18
35 K, Crystal 2 | 51.44 ± 0.22 | 78.37 ± 0.2
40 K, Crystal 2 | 62.61 ± 0.25 | 88.95 ± 0.22
45 K, Crystal 2 | 73.65 ± 0.28 | 98.67 ± 0.24
50 K, Crystal 2 | 84.51 ± 0.32 | 107.5 ± 0.3
55 K, Crystal 2 | 95.14 ± 0.35 | 115.5 ± 0.3
60 K, Crystal 2 | 105.5 ± 0.4 | 123 ± 0.3
65 K, Crystal 2 | 115.6 ± 0.4 | 130 ± 0.3
70 K, Crystal 2 | 125.5 ± 0.4 | 136.6 ± 0.3
80 K, Crystal 2 | 144.6 ± 0.5 | 148.9 ± 0.3
90 K, Crystal 2 | 162.8 ± 0.5 | 160 ± 0.4
100 K, Crystal 2 | 180.2 ± 0.6 | 170.5 ± 0.4
110 K, Crystal 2 | 196.9 ± 0.6 | 180.5 ± 0.4
120 K, Crystal 1 | – | 192.4 ± 0.4
120 K, Crystal 2 | – | 192.4 ± 0.4
130 K, Crystal 1 | 228.7 ± 0.6 | 198.6 ± 0.4
140 K, Crystal 1 | 243.7 ± 0.7 | 206.9 ± 0.4
150 K, Crystal 1 | 258.3 ± 0.7 | 216.1 ± 0.4
160 K, Crystal 1 | 272.5 ± 0.7 | 225.6 ± 0.4
170 K, Crystal 1 | 286.5 ± 0.7 | 235.5 ± 0.4
180 K, Crystal 1 | 300.3 ± 0.8 | 245.9 ± 0.4
190 K, Crystal 1 | 313.8 ± 0.8 | 256.7 ± 0.5
200 K, Crystal 1 | 327.3 ± 0.8 | 267.8 ± 0.5
210 K, Crystal 1 | 340.6 ± 0.8 | 279.3 ± 0.5
220 K, Crystal 1 | 353.9 ± 0.8 | 290.9 ± 0.5
230 K, Crystal 1 | 367.1 ± 0.9 | 302.8 ± 0.5
240 K, Crystal 1 | 380.2 ± 0.9 | 314.9 ± 0.5
250 K, Crystal 1 | 393.3 ± 0.9 | 327.1 ± 0.5
260 K, Crystal 1 | 406.4 ± 0.9 | 339.4 ± 0.5
270 K, Crystal 1 | 419.4 ± 0.9 | 351.9 ± 0.6
280 K, Crystal 1 | 432.5 ± 1 | 364.5 ± 0.6
290 K, Crystal 1 | 445.5 ± 1 | 377.3 ± 0.6
290.98 K, Crystal 1 | 446.8 ± 1 | 378.5 ± 0.6
290.98 K, Liquid | 513.6 ± 1.1 | 423.9 ± 0.6
298.15 K, Liquid | 523.9 ± 1.1 | 427.7 ± 0.6
300 K, Liquid | 526.6 ± 1.1 | 428.6 ± 0.6
310 K, Liquid | 540.7 ± 1.1 | 433.9 ± 0.6
320 K, Liquid | 554.6 ± 1.1 | 439.2 ± 0.6
330 K, Liquid | 568.2 ± 1.2 | 444.6 ± 0.6
340 K, Liquid | 581.5 ± 1.2 | 450 ± 0.7
350 K, Liquid | 594.7 ± 1.2 | 455.4 ± 0.7
360 K, Liquid | 607.6 ± 1.2 | 460.9 ± 0.7
370 K, Liquid | 620.3 ± 1.2 | 466.4 ± 0.7

[1]
Conditions | Triple point temperature [K]
Crystal 1 | 290.98 ± 0.04
Crystal 2 | 120 ± 0.1

Source: the NIST ThermoML archive (doi:10.1016/j.tca.2010.08.002)
